Measured values reported in patent US10683272B2 (THE JOHNS HOPKINS UNIVERSITY, priority 2014, dated 2020).
Read-outs that look alike come from different tables or passages of the source. Where a SMILES comes first, the peptide text is derived from it. [ ]: non-standard residue; d: D form. The star is where a group is joined. ξ: configuration not given here. X1 = O=C(O)CC[C@H](NC(=O)N[C@@H](CCCCNC(=O)CCCCCCC(=O)*)C(=O)O)C(=O)O; DOTA = O=C(O)CN1CCN(CC(=O)O)CCN(CC(=O)*)CCN(CC(=O)O)CC1; ξF = NC(Cc1ccccc1)C(=O)O

Columns and labels:
[1] = system: PSMA+ PC3 PIP and PSMA− PC3 flu cells; assay: T1-weighted MR imaging of cell pellets; format: cell-based, human; conditions: PSMA+ PC3 PIP vs PSMA− PC3 flu cell pellets
Protocol: FIG. 4A through FIG. 4C show T1 contrast enhancement generated by Gd3 in an isogenic human PC3 prostate cancer cell pair, PSMA+ PIP and PSMA− flu cells; (A) Color coded T1 maps of PIP and flu cells. Relaxation rates were determined at 25° C. at 9.4 T; (B) Quantification of T1 changes (ΔT1) in PIP and flu cells (n=4, P<0.05) following treatment with Gd3; (C) cellular uptake of Gd3 in PIP and flu cells.
(§1) When imaged at 9.4 T and 25° C., solution phantoms indicated r1 relaxivities in PBS that vary between 3.0 and 6.2 mM^−1 s^−1 per Gd(III) and between 3.0 and 12.5 mM-1 s-1 per contrast agent (Table 1). As expected, Gd1 has the lowest relaxivity followed by Gd2 and Gd3 at 25° C. To determine selectivity and specificity of the agents, human prostate cancer cells genetically modified to express high amounts of PSMA (PC3 PIP) and the corresponding wild-type, PSMA-non-expressing cells (PC3 flu) were selected as negative control (Banerjee, Angew., 2001). […] Enhancement and T1 measurements by means of MRI of the cell pellets in the presence and absence of 50 μM Gd3 indicated higher enhancement and difference in T1 relaxation rates, ΔR1 between Gd3 treated PIP cells and the control PIP cells as compared to the Gd3-treated flu cells and the control flu control cells, after removal of the Gd3 from the cell system by washing with standard medium (FIG. 4B and FIG. 4C).

PSMA = PSMA (Homo sapiens, UniProt Q04609); assay: fluorescence-based PSMA inhibition assay (Example 1); format: biochemical
Sequence of PSMA (Q04609 whole entry): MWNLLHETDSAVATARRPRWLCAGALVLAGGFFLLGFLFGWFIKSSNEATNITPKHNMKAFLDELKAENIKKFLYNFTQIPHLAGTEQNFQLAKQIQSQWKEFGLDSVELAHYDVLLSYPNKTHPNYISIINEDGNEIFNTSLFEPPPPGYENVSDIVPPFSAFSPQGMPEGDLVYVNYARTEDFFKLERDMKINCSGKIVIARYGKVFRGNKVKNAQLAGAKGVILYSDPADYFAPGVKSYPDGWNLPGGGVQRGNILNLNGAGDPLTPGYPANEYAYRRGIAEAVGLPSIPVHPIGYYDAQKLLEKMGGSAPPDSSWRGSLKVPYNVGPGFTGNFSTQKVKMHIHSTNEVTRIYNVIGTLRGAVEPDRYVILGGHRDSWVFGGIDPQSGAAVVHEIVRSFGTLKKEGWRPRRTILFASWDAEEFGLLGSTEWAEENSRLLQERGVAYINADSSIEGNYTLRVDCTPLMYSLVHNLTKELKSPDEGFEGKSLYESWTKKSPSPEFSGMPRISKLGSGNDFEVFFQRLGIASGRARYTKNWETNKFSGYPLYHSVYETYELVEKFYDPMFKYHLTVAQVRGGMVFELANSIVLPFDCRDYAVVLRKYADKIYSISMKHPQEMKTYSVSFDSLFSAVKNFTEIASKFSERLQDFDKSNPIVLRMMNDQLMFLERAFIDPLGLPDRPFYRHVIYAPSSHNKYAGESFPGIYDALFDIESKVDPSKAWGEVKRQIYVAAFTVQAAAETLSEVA

[2] = r1 relaxivity of solution phantoms at 9.4 T and 25° C.; format: physicochemical; conditions: for r1 relaxivity, ionic (per Gd(III)) / r1 relaxivity, molecular (per contrast agent): 9.4 T, 25° C., PBS; for r1 relaxivity: column T1 of Table 1
Protocol: as §1

PSMA+ PC3 PIP cells [3] = assay: ICP-MS analysis of Gd in cell pellets; format: cell-based, human
Description: Thus, the difference between ΔR1 of the PIP cells and that of the flu cells reflects the change due to the specific Gd3 binding to PSMA in the PIP cells.

PSMA+ PC3 PIP cells [4] = assay: cell internalization assay (ICP-MS); format: cell-based, human
Protocol: FIG. 6A and FIG. 6B show the % ID of Gd3 cell surface bound (A) and internalized (B) at 1, 4 and 24 h;
Moreover, slightly higher non-specific uptake was associated with Gd2 in PSMA− PC3 flu cells, which might be related to the lower K1 value of this agent compared to Gd1. As a further check on cellular uptake and internalization, a dual modality Gd monomeric contrast agent labeled with Rhodamine-Red™-X was prepared to confirm the PSMA-mediated internalization of this class of contrast agents (FIG. 5D).
A time-dependent internalization study was performed for Gd3 (FIG. 6A and FIG. 6B) after 1, 4 and 24 h of incubation. […] A similar amount of Gd (˜33-37% ID) was associated with the cell membrane at those same time-points.

[5] = system: PSMA+ PC-3 PIP and PSMA− PC-3 flu tumors; assay: small animal PET-CT imaging; format: in vivo, NOD/SCID mice; conditions: 2 h post-injection
Protocol: Mice (n=3 for ^86Y-4 or ^86Y-6 and n=2 for ^86Y-5) were injected via the tail vein with 3.33-6.21 MBq (90-168 μCi) of radiotracer formulated in 100 μL of saline at pH ˜7. […] At different time points, anesthetized individual mice were placed in the prone position on the scanner gantry and secured with medical tape while the anesthesia flow rate was increased to 0.8 L/min. Images were reconstructed using the FORE/2D-OSEM method (two iterations, 16 subsets) and included correction for radioactive decay, scanner dead time, and scattered radiation. Partial volume correction (PVC) was not performed. After each PET scan, a CT scan was acquired for anatomic co-registration. To facilitate PET and CT image co-registration, a special animal bed was employed which fits both the PET and CT scanners. The animals were under anesthesia and immobilized when moving between scanners as well as during both scans. The reconstructed PET and CT images were then manually co-registered through rigid transformation, by aligning natural landmarks (such as the animal limbs and the bed contour) using the AMIDE software (from sourceforge.net/amide).
Dynamic, whole-body PET and CT images were acquired on an eXplore VISTA small-animal PET (GE Healthcare, Little Chalfont, Buckinghamshire, UK) and an X-SPECT small SPECT/CT system (Gamma Medica Ideas, Northridge, Calif.), respectively.

PSMA− PC3 flu cells = assay: cell viability, MTS assay; format: cell-based, human; conditions: 24 h, up to Gd(III) concentration of 1 mM
Protocol: Prior to evaluating Gd3 for live mouse imaging, its biocompatibility was examined using a cell proliferation assay. Various concentrations of Gd3 were incubated with PSMA+PC3 PIP and PSMA− PC3 flu cells, for 24 h. […] However, Gd(III) concentrations of >1 mM affected PSMA+PC3 PIP cell viability (FIG. 8). The observed level of PSMA+PC3 PIP cell death may be attributable to high cell internalization of Gd3, and the long incubation time employed (24 h).

[6] = system: PSMA+ PC3 PIP and PSMA− PC3 flu tumor xenografts; format: in vivo
PSMA+ PC3 PIP cells [7] = assay: cell viability, MTS assay; format: cell-based, human; conditions: 24 h
[8] = PSMA+ PC3 PIP cells, 4 h incubation
[9] = 0.05 mmol/Kg i.v., first 20 min after injection

O=C([O-])CN1CCN(CC(=O)[O-])CCN(CC(=O)NCCCCC(NC(=O)CN2CCN(CC(=O)[O-])CCN(CC(=O)[O-])CCN(CC(=O)[O-])CC2)C(=O)NC(CCCCNC(=O)CCCCCCC(=O)NCCCC[C@H](NC(=O)N[C@@H](CCC(=O)O)C(=O)O)C(=O)O)C(=O)O)CCN(CC(=O)[O-])CC1.[Gd+3].[Gd+3] (stereo partly drawn) [Gd2, (30S,34S)-2,9,17,24,32-pentaoxo-1-(4,7,10-tris(carboxymethyl)-1,4,7,10-tetraazacyclododecan-1-yl)-8-(2-(4,7,10-tris(carboxymethyl)-1,4,7,10-tetraazacyclododecan-1-yl)acetamido)-3,10,16,25,31,33-hexaazahexatriacontane-11,30,34,36-tetracarboxylic acid, digadolinium(III) salt]
T1-weighted MR contrast of cell pellets [1]: did not demonstrate T1-weighted MR contrast or changes in R1 | Ki (PSMA): 18.2 nM | r1 relaxivity, ionic (per Gd(III)) [2]: 6.2 mM⁻¹ s⁻¹ | r1 relaxivity, molecular (per contrast agent) [2]: 12.5 mM⁻¹ s⁻¹ | r1 relaxivity [2]: 5.44 mM⁻¹ s⁻¹ | estimated intracellular Gd(III) concentration (PSMA+ PC3 PIP cells [3]): ~12.5 µM | percent of incubated dose associated with the cell surface (PSMA+ PC3 PIP cells [4]; [8]): 3.51±1.32 % ID | percent of incubated dose internalized (PSMA+ PC3 PIP cells [4]; [8]): 21.63±3.51 % ID

O=C([O-])CN1CCN(CC(=O)[O-])CCN(CC(=O)NC(Cc2ccccc2)C(=O)NC(Cc2ccccc2)C(=O)NC(Cc2ccccc2)C(=O)N[C@@H](CCCCNC(=O)CCCCCCC(=O)NCCCC[C@H](NC(=O)N[C@@H](CCC(=O)O)C(=O)O)C(=O)O)C(=O)O)CCN(CC(=O)[O-])CC1.[86Y+3] (some centres unmarked) [^86Y-5] ({DOTA}-[ξF][ξF][ξF]K(X1)-OH)
non-specific accumulation on PET/CT [5]: non-specific accumulation in the gastrointestinal tract

(3S,7S)-5,13,20,28-tetraoxo-32-(2,4,6-tris(1-(2-hydroxy-3-(4,7,10-tris(carboxymethyl)-1,4,7,10-tetraazacyclododecan-1-yl)propyl)-1H-1,2,3-triazol-4-yl)phenoxy)-4,6,12,21,27-pentaazadotriacontane-1,3,7,22-tetracarboxylic acid, trigadolinium(III) salt [Gd3]
T1-weighted MR contrast of cell pellets [1]: significant MR contrast enhancement in PSMA+PC3 PIP cells | cell viability (PSMA− PC3 flu cells): ~90% | contrast enhancement at PIP tumor ([6]; 0.05 mmol/Kg i.v., 40 min post-injection): 36% | lowering of T1 value, PIP tumor [6, 9]: 0.57 s | lowering of T1 value, PSMA flu tumor [6, 9]: 0.63 s | lowering of T1 value, muscle [6, 9]: 0.261 s | contrast enhancement at PIP tumor ([6]; 0.05 mmol/Kg i.v., until 1.5 h post injection): 30% | highest contrast enhancement, PSMA− PC3 flu tumors ([6]; 0.06 mmol/kg i.v., 20 min post-injection): ~24% | enhancement in R1, PSMA+ PC3 PIP tumor ([6]; 0.06 mmol/kg i.v., 190 min after injection): 24% | ΔR1, PSMA− PC3 flu tumors ([6]; 0.06 mmol/kg i.v., after 40 min): < 20% | average enhancement in R1 values, PSMA+ PC3 PIP tumor ([6]; 0.06 mmol/kg i.v., first 40 to 60 min): 36% | minimum T1 value of PSMA+ PC3 PIP tumor ([6]; 0.06 mmol/kg i.v., first 40 to 60 min, n=4): 1,819±76 ms | enhancement in R1, PSMA+ PC3 PIP tumor ([6]; 0.06 mmol/kg i.v., until 90 min): 29% | Ki (PSMA): 7.19 nM | Gd(III) concentrations that affected cell viability (PSMA+ PC3 PIP cells [7]): > 1 mM | r1 relaxivity, ionic (per Gd(III)) [2]: 3.3 mM⁻¹ s⁻¹ | r1 relaxivity, molecular (per contrast agent) [2]: 9.81 mM⁻¹ s⁻¹ | r1 relaxivity [2]: 12.47 mM⁻¹ s⁻¹ | estimated intracellular Gd(III) concentration (PSMA+ PC3 PIP cells [3]): ~22.82 µM | amount of Gd associated with the cell membrane (PSMA+ PC3 PIP cells [4]; PSMA+ PC3 PIP cells, 1, 4 and 24 h): 33-37 % ID | percent of incubated dose internalized (PSMA+ PC3 PIP cells [4]; PSMA+ PC3 PIP cells, 1 h incubation): 28.30±0.47 % ID | percent of incubated dose internalized (PSMA+ PC3 PIP cells [4]; [8]): 39.92±3.59 % ID | percent of incubated dose internalized (PSMA+ PC3 PIP cells [4]; PSMA+ PC3 PIP cells, 24 h incubation): ~89.69±3.90 % ID
